Source: the NIST ThermoML archive (doi:10.1021/acs.jced.6b00396)

Test: xn = mol fraction of the nth substance listed
Settings: Gas, isochoric method

C=C(F)C(F)(F)F [2,3,3,3-tetrafluoro-1-propene] + CCC
Settings	specific volume [m3/kg]
268.15 K, 333 kPa, x2 = 0.709	0.095
273.15 K, 340.4 kPa, x2 = 0.709	0.095
278.15 K, 347.7 kPa, x2 = 0.709	0.095
278.15 K, 366.9 kPa, x2 = 0.505	0.072
283.15 K, 354.8 kPa, x2 = 0.709	0.095
283.15 K, 374.9 kPa, x2 = 0.505	0.072
288.13 K, 614.2 kPa, x2 = 0.611	0.047
288.15 K, 382.8 kPa, x2 = 0.505	0.072
288.16 K, 362 kPa, x2 = 0.709	0.095
288.16 K, 449 kPa, x2 = 0.23	0.048
293.15 K, 369.3 kPa, x2 = 0.709	0.095
293.15 K, 390.7 kPa, x2 = 0.505	0.072
293.15 K, 459.2 kPa, x2 = 0.23	0.048
293.17 K, 628.3 kPa, x2 = 0.611	0.047
298.15 K, 376.6 kPa, x2 = 0.709	0.095
298.15 K, 398.5 kPa, x2 = 0.505	0.072
298.15 K, 470.2 kPa, x2 = 0.23	0.048
298.15 K, 642.2 kPa, x2 = 0.611	0.047
298.15 K, 807.3 kPa, x2 = 0.839	0.047
303.15 K, 383.9 kPa, x2 = 0.709	0.095
303.15 K, 406.7 kPa, x2 = 0.505	0.072
303.15 K, 479.7 kPa, x2 = 0.23	0.048
303.15 K, 656.1 kPa, x2 = 0.611	0.047
303.15 K, 825.7 kPa, x2 = 0.839	0.047
308.15 K, 391 kPa, x2 = 0.709	0.095
308.15 K, 414.4 kPa, x2 = 0.505	0.072
308.15 K, 489.4 kPa, x2 = 0.23	0.048
308.15 K, 669.8 kPa, x2 = 0.611	0.047
308.15 K, 844 kPa, x2 = 0.839	0.047
313.15 K, 398.2 kPa, x2 = 0.709	0.095
313.15 K, 422.1 kPa, x2 = 0.505	0.072
313.15 K, 499.1 kPa, x2 = 0.23	0.048
313.15 K, 683.5 kPa, x2 = 0.611	0.047
313.15 K, 862.2 kPa, x2 = 0.839	0.047
318.15 K, 405.3 kPa, x2 = 0.709	0.095
318.15 K, 429.8 kPa, x2 = 0.505	0.072
318.15 K, 508.7 kPa, x2 = 0.23	0.048
318.15 K, 697.1 kPa, x2 = 0.611	0.047
318.15 K, 880.3 kPa, x2 = 0.839	0.047
323.15 K, 412.4 kPa, x2 = 0.709	0.095
323.15 K, 437.5 kPa, x2 = 0.505	0.072
323.15 K, 518.3 kPa, x2 = 0.23	0.048
323.15 K, 710.9 kPa, x2 = 0.611	0.047
323.15 K, 898.3 kPa, x2 = 0.839	0.047
328.15 K, 419.5 kPa, x2 = 0.709	0.095
328.15 K, 445.3 kPa, x2 = 0.505	0.072
328.15 K, 527.8 kPa, x2 = 0.23	0.048
328.15 K, 724.4 kPa, x2 = 0.611	0.047
328.15 K, 916.2 kPa, x2 = 0.839	0.047
333.15 K, 426.6 kPa, x2 = 0.709	0.095
333.15 K, 452.9 kPa, x2 = 0.505	0.072
333.15 K, 537.3 kPa, x2 = 0.23	0.048
333.15 K, 737.9 kPa, x2 = 0.611	0.047
333.15 K, 934 kPa, x2 = 0.839	0.047
338.15 K, 433.8 kPa, x2 = 0.709	0.095
338.15 K, 460.5 kPa, x2 = 0.505	0.072
338.15 K, 546.7 kPa, x2 = 0.23	0.048
338.15 K, 751.3 kPa, x2 = 0.611	0.047
338.15 K, 951.8 kPa, x2 = 0.839	0.047
343.15 K, 440.8 kPa, x2 = 0.709	0.095
343.15 K, 468.1 kPa, x2 = 0.505	0.072
343.15 K, 556.2 kPa, x2 = 0.23	0.048
343.15 K, 764.6 kPa, x2 = 0.611	0.047
343.15 K, 969.5 kPa, x2 = 0.839	0.047
348.14 K, 778 kPa, x2 = 0.611	0.047
348.15 K, 447.9 kPa, x2 = 0.709	0.095
348.15 K, 475.6 kPa, x2 = 0.505	0.072
348.15 K, 565.8 kPa, x2 = 0.23	0.048
348.15 K, 987.1 kPa, x2 = 0.839	0.047
353.15 K, 454.9 kPa, x2 = 0.709	0.095
353.15 K, 483.2 kPa, x2 = 0.505	0.072
353.15 K, 575.1 kPa, x2 = 0.23	0.048
353.15 K, 791.3 kPa, x2 = 0.611	0.047
353.15 K, 1004.6 kPa, x2 = 0.839	0.047
358.15 K, 462 kPa, x2 = 0.709	0.095
358.15 K, 490.8 kPa, x2 = 0.505	0.072
358.15 K, 584.5 kPa, x2 = 0.23	0.048
358.15 K, 804.5 kPa, x2 = 0.611	0.047
358.15 K, 1022.2 kPa, x2 = 0.839	0.047
363.15 K, 469 kPa, x2 = 0.709	0.095
363.15 K, 498.3 kPa, x2 = 0.505	0.072
363.15 K, 593.8 kPa, x2 = 0.23	0.048
363.15 K, 817.7 kPa, x2 = 0.611	0.047
363.16 K, 1039.6 kPa, x2 = 0.839	0.047

F/C=C(\F)C(F)(F)F [(Z)-1,2,3,3,3-pentafluoro-1-propene] + CCC
Settings	specific volume [m3/kg]
303.15 K, 459.8 kPa, x2 = 0.855	0.09
303.15 K, 722.5 kPa, x2 = 0.593	0.038
308.15 K, 412.6 kPa, x2 = 0.516	0.067
308.15 K, 468.5 kPa, x2 = 0.855	0.09
308.15 K, 491.5 kPa, x2 = 0.225	0.042
308.15 K, 738.6 kPa, x2 = 0.593	0.038
308.15 K, 946.2 kPa, x2 = 0.69	0.032
313.15 K, 420.3 kPa, x2 = 0.516	0.067
313.15 K, 477.3 kPa, x2 = 0.855	0.09
313.15 K, 501.4 kPa, x2 = 0.225	0.042
313.15 K, 754.6 kPa, x2 = 0.593	0.038
313.15 K, 968.3 kPa, x2 = 0.69	0.032
318.15 K, 428 kPa, x2 = 0.516	0.067
318.15 K, 486 kPa, x2 = 0.855	0.09
318.15 K, 511.5 kPa, x2 = 0.225	0.042
318.15 K, 770.3 kPa, x2 = 0.593	0.038
318.15 K, 990.1 kPa, x2 = 0.69	0.032
323.15 K, 435.7 kPa, x2 = 0.516	0.067
323.15 K, 494.7 kPa, x2 = 0.855	0.09
323.15 K, 521.2 kPa, x2 = 0.225	0.042
323.15 K, 786.1 kPa, x2 = 0.593	0.038
323.15 K, 1011.5 kPa, x2 = 0.69	0.032
328.15 K, 443.4 kPa, x2 = 0.516	0.067
328.15 K, 503.4 kPa, x2 = 0.855	0.09
328.15 K, 531.1 kPa, x2 = 0.225	0.042
328.15 K, 801.7 kPa, x2 = 0.593	0.038
328.15 K, 1033 kPa, x2 = 0.69	0.032
333.15 K, 451 kPa, x2 = 0.516	0.067
333.15 K, 512.1 kPa, x2 = 0.855	0.09
333.15 K, 540.8 kPa, x2 = 0.225	0.042
333.15 K, 817.3 kPa, x2 = 0.593	0.038
333.15 K, 1054.4 kPa, x2 = 0.69	0.032
338.15 K, 458.7 kPa, x2 = 0.516	0.067
338.15 K, 520.9 kPa, x2 = 0.855	0.09
338.15 K, 550.6 kPa, x2 = 0.225	0.042
338.15 K, 832.7 kPa, x2 = 0.593	0.038
338.15 K, 1075.7 kPa, x2 = 0.69	0.032
343.15 K, 466.6 kPa, x2 = 0.516	0.067
343.15 K, 529.5 kPa, x2 = 0.855	0.09
343.15 K, 560.3 kPa, x2 = 0.225	0.042
343.15 K, 848.1 kPa, x2 = 0.593	0.038
343.15 K, 1096.9 kPa, x2 = 0.69	0.032
348.15 K, 474.1 kPa, x2 = 0.516	0.067
348.15 K, 538.1 kPa, x2 = 0.855	0.09
348.15 K, 570 kPa, x2 = 0.225	0.042
348.15 K, 863.4 kPa, x2 = 0.593	0.038
348.15 K, 1118 kPa, x2 = 0.69	0.032
353.15 K, 481.7 kPa, x2 = 0.516	0.067
353.15 K, 546.7 kPa, x2 = 0.855	0.09
353.15 K, 580.1 kPa, x2 = 0.225	0.042
353.15 K, 878.7 kPa, x2 = 0.593	0.038
353.15 K, 1139.2 kPa, x2 = 0.69	0.032
358.15 K, 489.3 kPa, x2 = 0.516	0.067
358.15 K, 555.3 kPa, x2 = 0.855	0.09
358.15 K, 589.7 kPa, x2 = 0.225	0.042
358.15 K, 893.9 kPa, x2 = 0.593	0.038
358.15 K, 1160 kPa, x2 = 0.69	0.032
363.15 K, 496.8 kPa, x2 = 0.516	0.067
363.15 K, 563.9 kPa, x2 = 0.855	0.09
363.15 K, 909 kPa, x2 = 0.593	0.038
363.15 K, 1180.9 kPa, x2 = 0.69	0.032
363.16 K, 599.3 kPa, x2 = 0.225	0.042
